# Assay results reported in PMC6680510, “Benzotriazine Di-Oxide Prodrugs for Exploiting Hypoxia and Low Extracellular pH in Tumors” (Molecules, 2019).
# “And” between values parts separate entries of the source, which are not always exact repeats. Identical values can stand only once. Like-named read-outs stand apart in the source and are kept apart here.
# How the values were obtained:
# [1] = One-electron reduction potentials by pulse radiolysis; assay type: physicochemical; conditions: pH 7.0, equilibrium with redox indicator shown in square brackets
# Protocol: One-electron reduction potentials (E^0′) were determined from the redox equilibria with methylviologen, MV^2+, (E^0′ = […], [34]), dimethyldiquat, V21^2+, (E^0′ = […], [35]), or triquat, TQ^2+, (E^0′ = −548 ± 7 mV [34]). […] Substituting the 3-alkanoic sidechain with the 3-aminoalkanoic sidechain on the BTO 1,4-dioxide lowers the E^0′, as does the addition of the cyclopentane ring. The combined effect is seen for 10a, where the E^0′ value is −565 mV, which is expected to be too low for significant bioreduction under hypoxia.
# (§1) Time-resolved optical absorption and kinetic studies were carried out using the University of Auckland’s 4 MeV linear accelerator, which has been previously described. The one-electron reduction potentials of the compounds (A) and couple E^0′(A/A^−), versus normal hydrogen electrode, were determined at pH 7.0 (2.5 mM phosphate) by establishing redox equilibria within 50 μs between three mixtures of one-electron reduced A and the viologen reference compounds, MV^2+, TQ^2+ and V21^2+. The determined equilibrium constants were used to calculate the ΔE values using the Nernst equation, correcting for ionic strength effects, as described in the literature.
# [2] = Pulse radiolysis of the radical anion (pKa, decay and oxidation kinetics); assay type: physicochemical
# Excerpt: The free radical chemistry of 7a was investigated by pulse radiolysis and electron paramagnetic resonance (EPR). […] The radical anion decayed slowly under anoxia at pH 7 with mixed kinetics (first-order rate constant of 78 ± 4 s^−1, second-order rate constant of 3.8 ± 0.7 × 10^7 M^−1 s^−1, Figure S3), broadly similar to SN30000 [24]. The second-order rate constant for oxidation of the radical anion of 7a by O2, 5.39 ± 0.40 × 10^6 M^−1 s^−1 (Figure S4), is consistent with the known dependence on E^0′ for BTOs.
# as §1
# Molecules 2019, 24, x FOR PEER REVIEW 3 of 8
# Figure S2. Effect of pH on the change in radical absorption at 490 nm upon one-electron reduction of 7a ([…]) by the CO2.- radical anion following pulse radiolysis (3 Gy in 200 ns) of N2O-saturated solutions containing sodium formate (0.1 M) and buffers (10 mM). Data points, obtained ca. 20 ms […]
# Figure S3. […]
# dependence on increasing radiation dose (radical concentration) of the reciprocal of the first half-life of decay of the radical anion of 7a measured at 490 nm. […]
# Figure S4. Dependence of the first-order rate constant measured at 490 nm for the decay of the radical anion of 7a at pH 7.0, k, on the concentration of O2 in solution following pulse radiolysis (10 Gy in 200 ns). […] The second order rate constant, kO2, calculated from the gradient
# SiHa cells [3] = assay: IC50 assay (inhibition of proliferation, 4 h exposure, SRB); conditions: SiHa; for IC50: Homo sapiens, 4 h
# Method in brief: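 Cells exposed to compound for 4 h in titrated medium, then washed and regrown 5 days under standard conditions (oxia, pHe 7.4). Growth read by sulforhodamine B staining; IC50 from 4-parameter logistic regression of duplicate cultures.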
# FaDu cells = assay: as above; assay type: cell-based; conditions: for IC50: Homo sapiens, 4 h
# [4] = Protein binding by equilibrium dialysis (FBS, culture medium); assay type: in vitro ADME
# Protocol: Protein binding of 7a in plasma from NIHIII mice and fetal bovine serum (FBS) assessed
# by equilibrium dialysis using a 12-14KDa cut-off dialysis membrane (HTDialysis, Gales Ferry, CT) as
# Briefly, 100 µL samples of undiluted plasma,
# plasma diluted in PBS, and αMEM with or without FBS containing 7a at 100 μM were dialysed against
# 100 µL PBS or αMEM (pH 7.4) in an incubator (Innova-42, New Brunswick Scientific, US ) at 37°C
# with shaking at 80 rpm for 6 h. Proteins were precipitated with 3 vol of ice-cold MeCN, the
# SiHa and SiHa/POR cells = assay: IC50 in SiHa versus SiHa/POR cultures under anoxia; assay type: cell-based; conditions: 4 h under anoxia, pHe 7.4
# Protocol: The lack of effect of POR over-expression on the reductive metabolism of the BTO acids in intact cells led us to compare the cytotoxicities of SN30000 (2), 4a, and 7a in SiHa/POR, and the parental line, under anoxia (Figure 6).
# Drug exposure was for 4 h under anoxia, at pHe 7.4, with regrowth under aerobic conditions for 5 days before staining with SRB. Values are means and SEM for the two experiments, each with triplicate cultures at each drug concentration. TEXT PRINTED IN THE PICTURE: Cmpd 2: Ratio 6.75 ± 0.20 | Cmpd 4a: Ratio 3.40 ± 0.22 | Cmpd 7a: Ratio 2.67 ± 0.46
# [5] = Solubility in AlphaMEM + 5% FBS, pH 7.4; conditions: culture medium (AlphaMEM + 5% FBS), pH 7.4, plasma or biological fluid, thermodynamic from solid
# [6] = Measured pKa (potentiometric titration)
# [7] = tested on: MDCK-II cells with forced expression of BCRP or Pgp; assay: IC50 under anoxia in cells with forced expression of efflux transporters; conditions: MDCK-II cell lines under anoxia, preliminary experiments
# Protocol: expression of BCRP or Pgp.
# Cells were seeded at 300 cells/well in DMEM with 10% FBS in 96 well plates in an
# anaerobic chamber, allowed to attach for 2 h then exposed to drugs for 4 h under anoxia. Cells were
# then washed with fresh medium and grown for 5 days under aerobic conditions before staining with
# SRB. Values are mean ± SEM from 2 separate experiments.
# SiHa cells [8] = assay: Cellular uptake in stirred aerobic single cell suspensions (HPLC, 3H-mannitol correction); conditions: for Observed Ci/Ce ratio: SiHa
# Protocol: In these experiments, cell pellets were collected by centrifugation and ^3H-mannitol was used as a cell-excluded marker to enable correction for the entrapped extracellular medium.
# Log-phase cultures were dissociated with trypsin/EDTA, followed by the addition of the medium with DNAase I (Sigma DN-25) at 100 μg/mL for 5 min at 37 °C to minimize clumping. The cell pellets were collected by centrifugation and resuspended in αMEM with 5% FBS at pH 7.4 or 6.5 to 2 × 10^6 cells/mL. Samples (12 mL) were equilibrated with magnetic stirring at 37 °C under flowing humidified 5% CO2/air or N2 (50–100 mL/min), as previously described [86]. After equilibration for 60 min, the compounds were added in 50 μL of DMSO. The samples (5 mL) were withdrawn 5 and 60 min later, where the cell pellets were then collected by centrifugation and 4 mL of the supernatant was discarded. The pellets were resuspended in the remaining 1 mL, transferred to microcentrifuge tubes containing 7 μL ^3H-mannitol (740 GBq/mmol, American Radiolabeled Chemicals Inc., St. Louis, MO) as an extracellular marker, and then centrifuged (11,000g × 30s). The supernatant was removed and frozen at −80 °C (extracellular samples) and the tubes were centrifuged again, and any remaining medium was carefully removed. Ice-cold MeOH (80 μL) was added to the pellets which were disrupted by pipetting and stored at −80 °C (intracellular samples). When these were thawed for HPLC analysis (Section 4.12), the volume of extracellular water trapped in the pellets was determined by the scintillation counting (PerkinElmer Tri-Carb B2910TR Liquid Scintillation) of 25 μL of each extracellular and intracellular sample in 3 mL of Emulsifier-Safe™ scintillation cocktail (PerkinElmer). The extracellular volume in each intracellular sample was used to correct the intracellular drug concentration as previously described [87].
# The samples were analyzed using an Agilent 1200 HPLC with a diode array absorbance detector and autosampler maintained at 4 °C (Agilent Technologies). The frozen samples were thawed, then centrifuged (11,000g × 5 min), and then extracellular samples were injected directly (typically 20 μL), while for the intracellular samples 30 μL was mixed 1:1 with αMEM and 50 μL was injected. […] All calibration curves were linear (R^2 > 0.999). The column was an Agilent ZORBAX Eclipse (XDB-C18, 5u, 2.1 × 150 mm, Agilent Technologies) with a flow rate of 0.4 mL/min. For SN30000 (2), the mobile phase was a mixture of 80% MeCN/water v/v (A), and a 45 mM formate buffer at a pH 4.5, eluting with a linear gradient of 5–100% A over 18 min. The same method was used for the BTO acids, except for 4a, where the aqueous mobile phase pH was reduced to 3.5.
# Values are mean and SEM for 3 replicates. ND: Not detected.
smiles,measurement,setting,value
"O=C(O)CCc1n[n+]([O-])c2cc3c(cc2[n+]1[O-])CCC3 [Compound 7a, 3-(2-Carboxyethyl)-7,8-dihydro-6H-indeno[5,6-e][1,2,4]triazine 1,4-Dioxide]",E^0′ one-electron reduction potential,[1],"−463 mV and −463 ± 8 [MV^2+, V21^2+] mV"
same,First-order rate constant of radical anion decay,"[2]; anoxia, pH 7",78 ± 4 s⁻¹
same,Second-order rate constant of radical anion decay,"[2]; anoxia, pH 7",3.8 ± 0.7 × 10^7 M^−1 s^−1
same,Second-order rate constant for oxidation of the radical anion by O2,[2]; pH 7.0,5.39 ± 0.40 × 10^6 M^−1 s^−1
same,IC50,"SiHa cells [3]; read-out: Anoxic IC50, SiHa, pHe 6.5, 4 h, anoxic",428 ± 152 µM
same,IC50,"SiHa cells [3]; read-out: Anoxic IC50, SiHa, pHe 7.4, 4 h, anoxic",864 ± 277 µM
same,IC50,"SiHa cells [3]; read-out: Oxic IC50, SiHa, pHe 6.5, 4 h, oxic",1890 ± 308 µM
same,IC50,"SiHa cells [3]; read-out: Oxic IC50, SiHa, pHe 7.4, 4 h, oxic",3720 ± 830 µM
same,TMR (overall TME ratio = oxic IC50 pHe 7.4/anoxic IC50 pHe 6.5),SiHa cells [3],8.7 ± 3.6
same,PCR Anoxic (IC50 at pHe 7.4/IC50 at pHe 6.5),SiHa cells [3]; anoxic,2.02 ± 0.97
same,PCR oxic (IC50 at pHe 7.4/IC50 at pHe 6.5),SiHa cells [3]; oxic,1.97 ± 0.55
same,ACR (anoxic cytotoxicity ratio = oxic IC50/anoxic IC50),SiHa cells [3]; pHe 6.5,4.41 ± 1.73
same,ACR (anoxic cytotoxicity ratio = oxic IC50/anoxic IC50),SiHa cells [3]; pHe 7.4,4.31 ± 1.58
same,TMR (oxic IC50 pHe 7.4/anoxic IC50 pHe 6.5),FaDu cells,>7.9
same,IC50,"FaDu cells; pHe 6.5, 4 h, anoxic, read-out: Anoxic IC50",885 ± 515 µM
same,IC50,"FaDu cells; pHe 6.5, 4 h, oxic, read-out: Oxic IC50",4910 ± 1600 µM
same,IC50,"FaDu cells; pHe 7.4, 4 h, anoxic, read-out: Anoxic IC50",3260 ± 1070 µM
same,IC50,"FaDu cells; pHe 7.4, 4 h, oxic, read-out: Oxic IC50",> 7000 µM
same,PCR oxic (IC50 at pHe 7.4/IC50 at pHe 6.5),FaDu cells; oxic,>1.4
same,ACR (oxic IC50/anoxic IC50),FaDu cells; pHe 6.5,5.55 ± 3.70
same,ACR (oxic IC50/anoxic IC50),FaDu cells; pHe 7.4,> 2
same,Protein binding in culture medium with 5 or 10% FBS,[4]; 100 μM,not detectable
same,"fraction unbound at 6 h, 100 µM","[4]; bovine, fetal bovine serum (FBS), pH 7.4, FBS, read-out: Protein binding (bound) in FBS (converted)",0.38
same,IC50 ratio SiHa / SiHa/POR (fold lower IC50 in POR cell line),SiHa and SiHa/POR cells,2.67 ± 0.46 and 2.7
same,solubility,[5],24.8 mM
same,pKa,[6],4.16
same,Effect of overexpression of BCRP or Pgp efflux transporters on sensitivity,[7],no effect
same,Observed Ci/Ce ratio,"SiHa cells [8]; pHe 6.5, approximate value quoted in text",~ 0.7
same,Observed Ci/Ce ratio,"SiHa cells [8]; pHe 7.4, approximate value quoted in text",~ 0.1
same,Ci ratio (Ci at pHe 6.5/Ci at pHe 7.4),"SiHa cells [8]; aerobic SiHa suspensions, 5 min",3.9 ± 1.3 fold
same,"Ci/Ce, pHe 6.5 Obs 5 min","SiHa cells [8]; aerobic SiHa suspensions, pHe 6.5, 5 min",0.70 ± 0.03
same,"Ci/Ce, pHe 6.5 Obs 60 min","SiHa cells [8]; aerobic SiHa suspensions, pHe 6.5, 60 min",0.75 ± 0.03
same,"Ci/Ce, pHe 7.4 Obs 5 min","SiHa cells [8]; aerobic SiHa suspensions, pHe 7.4, 5 min",0.21 ± 0.08
same,"Ci/Ce, pHe 7.4 Obs 60 min","SiHa cells [8]; aerobic SiHa suspensions, pHe 7.4, 60 min",<0.1
